{
  "source": "patent US20180271863A1",
  "about": "“TARGETING P2 PURINERGIC RECEPTORS TO TREAT HEPATOCELLULAR CARCINOMA (HCC)” (Baylor College of Medicine, priority 2015, published 2018)",
  "key": {"[1]": {"tested_on": "Huh7 cells", "test": "Western blotting of cyclin and CDK proteins in Huh7 cells", "assay_type": "cell-based, human", "method": "(§1) Normal human primary hepatocytes isolated from healthy adults (no known history of HCC) in suspension or freshly-frozen prior to shipment (Cryoport Systems, CA) were purchased from Triangle Research Labs, NC. Fresh hepatocytes were plated on collagen-coated tissue culture plates or glass coverslips in Williams E complete media with additives (10% fetal bovine serum, 2 mM glutamine, […] insulin, 4 ng/ml glucagon, […] transferrin, 2.5 ng/ml sodium selenite, 10,000 U/ml penicillin, […] streptomycin, 50 g/ml gentamycin) for 3 h to ensure hepatocyte adherence to plates. Subsequently, hepatocytes were maintained in Williams E minimal media free from serum and growth factors for 24 h prior to treatment. Human hepatocellular carcinoma derived Huh7, and Hep3B, were cultured in Minimum Essential Medium Eagle (MEM); SNU-387 was cultured in Roswell Park Memorial Institute (RPMI) medium and PLC/PRF/5 cultured in Dulbecco's Modified Eagle's medium (DMEM). All maintenance culture media were supplemented with 10% fetal bovine serum (FBS), L-Glutamine (2 mM), penicillin (100 units/ml) and streptomycin ([…]) at 37° C. and 5% CO2. Cells were maintained in serum free media (containing 2 mM L-Glutamine, 100 units/ml penicillin and ([…])) streptomycin for 24 h prior to treatment.\nTotal protein extracts were obtained by homogenizing cells in total lysis buffer (50 mM Tris-HCl, pH 7.5, 0.5 M NaCl, 2 mM EGTA, 2 mM EDTA, 1.0% Triton X-100, 0.25% Deoxycholate, 1 m/ml pepstatin, 1.0 m/ml leupeptin, 1.0 m/ml aprotinin, 1.0 mM phenylmethylsulfonyl fluoride, 1.0 mM Dithiothreitol, 2.0 mM activated Na3VO4, and 2.0 mM NaF) and centrifuging at 14,000 rpm for 10 min (4° C.). Equal amounts of total proteins as determined by BCA protein Assay (Pierce, Rockford, Ill.) were analyzed by Western blotting. Blots were probed with antibody specific for a-tubulin or GAPDH to ensure equal loading of proteins in each lane."}, "[2]": {"tested_on": "Huh7 cells", "test": "BrdU incorporation (proliferation) in Huh7 cells", "assay_type": "cell-based, human", "conditions": "for BrdU incorporation / BrdU positive nuclei: nucleotide 100 μM", "method": "To determine whether P2 purinergic receptor activation influences HCC cell proliferation, BrdU incorporation was assessed in HCC cells maintained in SFM for 24 hours and treated with ATP for 24 hours. ATP treatment alone was sufficient to induce proliferation in each of these cell lines (Huh7, 34%; Hep3B, 46%; SNU-387, 47% and PLC/PRF/5, 24%), identifying nucleotides as liver cancer cell mitogens (FIG. 7A).\nExtracellular ATP can be hydrolyzed to ADP and adenosine by ectonucleotidases at the plasma membrane. Therefore, Applicants tested the effects of ATPγS (non-hydrolyzable analog of ATP) or ADP (break down product of ATP) (100 μM) on Huh7 cell proliferation. ATPγS treatment alone was sufficient to induce BrdU incorporation as early as 12 hours (42%); maintained at 18 h (30%) and 24 h (29%) in Huh7 cells (FIG. 8). ADP was also able to independently increase the number of BrdU positive nuclei (12 h, 30%; 18 h, 35%; 24 h, 37%) (FIG. 8). Furthermore, ATP treatment (18 h) increased cell proliferation and viability in all four cell lines, as determined by MTT assay (Huh7, 65%; Hep3B, 81%; SNU-387, 90% and PLC/PRF/5, 43%) (FIG. 7B).\nas §1\nFormalin-fixed and paraffin embedded liver sections from HCC patients were analyzed by immunohistochemistry with anti-P2X3 antibody (Abcam, Cambridge, Mass.). HCC cells were grown on glass coverslips; BrdU (10 μM, Roche, Indianapolis, Ind.) was added to culture media for 1 h prior to fixation (cold acetone:methanol, 1:1) and stained using anti-BrdU antibody (DAKO, Carpinteria, Calif.) and DAB Peroxidase Substrate Kit (Vector Labs, Burlingame, Calif.), according to manufacturer's instructions. Counterstaining was done with hematoxylin. BrdU positive cells were counted and expressed as a percentage of the total number of cells in ten randomly selected high-power fields (20×) per coverslips."}, "[3]": {"tested_on": "human hepatocytes", "test": "Western blotting of cyclin proteins in human hepatocytes", "assay_type": "cell-based", "method": "Normal human primary hepatocytes isolated from healthy adults (no known history of HCC) in suspension or freshly-frozen prior to shipment (Cryoport Systems, CA) were purchased from Triangle Research Labs, NC. Fresh hepatocytes were plated on collagen-coated tissue culture plates or glass coverslips in Williams E complete media with additives (10% fetal bovine serum, 2 mM glutamine, […] insulin, 4 ng/ml glucagon, […] transferrin, 2.5 ng/ml sodium selenite, 10,000 U/ml penicillin, […] streptomycin, 50 g/ml gentamycin) for 3 h to ensure hepatocyte adherence to plates. Subsequently, hepatocytes were maintained in Williams E minimal media free from serum and growth factors for 24 h prior to treatment. Human hepatocellular carcinoma derived Huh7, and Hep3B, were cultured in Minimum Essential Medium Eagle (MEM); SNU-387 was cultured in Roswell Park Memorial Institute (RPMI) medium and PLC/PRF/5 cultured in Dulbecco's Modified Eagle's medium (DMEM). All maintenance culture media were supplemented with 10% fetal bovine serum (FBS), L-Glutamine (2 mM), penicillin (100 units/ml) and streptomycin ([…]) at 37° C. and 5% CO2. Cells were maintained in serum free media (containing 2 mM L-Glutamine, 100 units/ml penicillin and ([…])) streptomycin for 24 h prior to treatment. Total protein extracts were obtained by homogenizing cells in total lysis buffer (50 mM Tris-HCl, pH 7.5, 0.5 M NaCl, 2 mM EGTA, 2 mM EDTA, 1.0% Triton X-100, 0.25% Deoxycholate, 1 m/ml pepstatin, 1.0 m/ml leupeptin, 1.0 m/ml aprotinin, 1.0 mM phenylmethylsulfonyl fluoride, 1.0 mM Dithiothreitol, 2.0 mM activated Na3VO4, and 2.0 mM NaF) and centrifuging at 14,000 rpm for 10 min (4° C.). Equal amounts of total proteins as determined by BCA protein Assay (Pierce, Rockford, Ill.) were analyzed by Western blotting. Blots were probed with antibody specific for a-tubulin or GAPDH to ensure equal loading of proteins in each lane."}, "[4]": {"conditions": "AF-353 5 μM pre-treatment, ATP 24 h"}, "[5]": {"conditions": "antagonist alone, serum-free conditions"}},
  "note": "“Also recorded” adds a separate entry of the source.",
  "data": [
    {"smiles": "Nc1ncnc2c1ncn2[C@@H]1O[C@H](COP(=O)(O)OP(=O)(O)OP(=O)(O)O)[C@@H](O)[C@H]1O", "note": "[ATP]", "values": [
      {"measurement": "cyclin D3 protein expression", "setting": "[1]; ATP 24 hours, serum-free", "result": 3.2, "unit": "fold"},
      {"measurement": "proliferation (BrdU incorporation) induced by ATP", "setting": "[2]; SFM 24 hours, ATP 24 hours", "result": 34, "unit": "%"}
    ]},
    {"smiles": "COc1cc(C(C)C)c(Oc2cnc(N)nc2N)cc1I", "note": "[AF-353]", "values": [
      {"measurement": "effect on ATP-mediated induction of cyclin D3 and cyclin E expression", "setting": "[3]; [4]", "result": "completely attenuated"},
      {"measurement": "effect on ATP-mediated induction of cyclin D3 and cyclin E expression", "setting": "[1]; [4]", "result": "completely attenuated"},
      {"measurement": "effect on baseline cyclin protein expression", "setting": "[1]; [5]", "result": "reduce"},
      {"measurement": "effect on ATP-mediated increase in BrdU incorporation", "setting": "[2]; AF-353 5 μM pre-treatment, ATP 100 μM 24 hr", "result": "completely abolished; also recorded: attenuates"},
      {"measurement": "effect on baseline BrdU-positive cells", "setting": "[2]; [5]", "result": "reduce"}
    ]},
    {"smiles": "Nc1ncnc2c1ncn2[C@@H]1O[C@H](COP(=O)(O)OP(=O)(O)OP(O)(O)=S)[C@@H](O)[C@H]1O", "note": "[ATPγS]", "values": [
      {"measurement": "cyclin D3 protein expression", "setting": "[3]; ATPγS 24 h", "result": 2.0, "unit": "fold"},
      {"measurement": "cyclin E protein expression", "setting": "[3]; ATPγS 24 h", "result": 2.0, "unit": "fold"},
      {"measurement": "cyclin A protein expression", "setting": "[1]; ATPγS 18 h", "result": 1.7, "unit": "fold"},
      {"measurement": "cyclin D3 protein expression", "setting": "[1]; ATPγS 18 h", "result": 2.7, "unit": "fold"},
      {"measurement": "cyclin E protein expression", "setting": "[1]; ATPγS 18 h", "result": 1.7, "unit": "fold"},
      {"measurement": "cyclin A protein expression", "setting": "[1]; ATPγS 24 h", "result": 1.2, "unit": "fold"},
      {"measurement": "cyclin D3 protein expression", "setting": "[1]; ATPγS 24 h", "result": 2.8, "unit": "fold"},
      {"measurement": "cyclin E protein expression", "setting": "[1]; ATPγS 24 h", "result": 1.3, "unit": "fold"},
      {"measurement": "CDK2 protein expression", "setting": "[1]; ATPγS 30 h", "result": 1.6, "unit": "fold"},
      {"measurement": "CDK4 protein expression", "setting": "[1]; ATPγS 30 h", "result": 1.4, "unit": "fold"},
      {"measurement": "cyclin A protein expression", "setting": "[1]; ATPγS 30 h", "result": 1.2, "unit": "fold"},
      {"measurement": "cyclin D3 protein expression", "setting": "[1]; ATPγS 30 h", "result": 2.1, "unit": "fold"},
      {"measurement": "cyclin E protein expression", "setting": "[1]; ATPγS 30 h", "result": 2.2, "unit": "fold"},
      {"measurement": "BrdU incorporation / BrdU positive nuclei", "setting": "[2]; 12 h", "result": 42, "unit": "%"},
      {"measurement": "BrdU incorporation / BrdU positive nuclei", "setting": "[2]; 18 h", "result": 30, "unit": "%"},
      {"measurement": "BrdU incorporation / BrdU positive nuclei", "setting": "[2]; 24 h", "result": 29, "unit": "%"}
    ]}
  ]
}
